Results published in paper PMC10294832, “Investigation of Naphthyl–Polyamine Conjugates as Antimicrobials and Antibiotic Enhancers” (Antibiotics, 2023).
Values joined by “and” are separate entries in the source; they are usually repeats but may differ in a detail not shown here. Identical values can stand only once. Like-named read-outs stand apart in the source and are kept apart here.

Experiments:
[1] = system: S. aureus (ATCC 25,923 or ATCC 29213); experiment: Antimicrobial MIC, S. aureus; format: cell-based, Staphylococcus aureus; details: mean (n = 3)
Protocol: (§1) The susceptibility of bacterial strains S. aureus (ATCC 25,923 or 29213), E. coli (ATCC 25922), and P. aeruginosa (ATCC 27853) to antibiotics and compounds was determined according to previously reported protocols. Additional antimicrobial evaluation against MRSA (ATCC 43300), Klebsiella pneumoniae (ATCC 700603), Acinetobacter baumannii (ATCC 19606), Candida albicans (ATCC 90028), and Cryptococcus neoformans (ATCC 208821) was undertaken at the Community for Open Antimicrobial Drug Discovery at The University of Queensland (Australia) according to their standard protocols as reported previously.

MRSA (ATCC 43300) = experiment: Antimicrobial MIC, MRSA; format: cell-based, methicillin-resistant Staphylococcus aureus; details: MRSA (ATCC 43300), mean (n = 2), read-out: MIC MRSA
Protocol: as §1

[2] = system: P. aeruginosa (PAO1 or ATCC 27853); experiment: Antimicrobial MIC, P. aeruginosa; format: cell-based; details: Pseudomonas aeruginosa; P. aeruginosa (PAO1 or ATCC 27853); mean (n = 3); read-out: MIC P. a
Protocol: as §1

E. coli (ATCC 25922) [3] = experiment: Antimicrobial MIC, E. coli; format: cell-based, Escherichia coli; details: mean (n = 2)
Protocol: as §1

[4] = system: K. pneumoniae (ATCC 700603); experiment: Antimicrobial MIC, K. pneumoniae; format: cell-based; details: Klebsiella pneumoniae, ATCC700603, mean (n = 2)
Protocol: as §1

[5] = system: A. baumannii (ATCC 19606); experiment: Antimicrobial MIC, A. baumannii; format: cell-based, Acinetobacter baumannii; details: Acinetobacter baumannii, ATCC19606, A. baumannii (ATCC 19606); mean (n = 2)
Protocol: as §1

C. albicans (ATCC 90028) = experiment: Antifungal MIC, C. albicans; format: cell-based; details: Candida albicans, ATCC90028, mean (n = 2)
Protocol: as §1

[6] = system: C. neoformans (ATCC 208821); experiment: Antifungal MIC, C. neoformans; format: cell-based, Cryptococcus neoformans; details: Cryptococcus neoformans, ATCC208821, C. neoformans (ATCC 208821); mean (n = 2)
Protocol: as §1

Cytotoxicity assay = format: cell-based, human; details: human, HEK293 human embryonic kidney cells, concentration at 50% cytotoxicity on HEK293 cells; mean (n = 2)
Protocol: Cytotoxicity assays were conducted using the protocols previously reported.

human red blood cells = experiment: Hemolytic assay; format: cell-based; details: concentration at 10% hemolytic activity on human red blood cells; mean (n = 2)
Protocol: Hemolysis assays were conducted using the protocols previously reported.

[7] = system: P. aeruginosa (ATCC 27853); experiment: Enhancement of doxycycline activity; format: cell-based, Pseudomonas aeruginosa; details: for Dox/P.a: concentration required to restore doxycycline activity (combination MIC): doxycycline fixed at 4.5 µM (2 µg/mL), P. aeruginosa (ATCC 27853); for Dox/P.a fold change: ratio between intrinsic MIC of test compound and combination MIC, doxycycline 4.5 µM, P. aeruginosa
E. coli (ATCC 25922) [8] = experiment: Enhancement of erythromycin activity; format: cell-based, Escherichia coli; details: for Eryth/E.c: concentration required to restore erythromycin activity (combination MIC): erythromycin fixed at 10.9 µM (8 µg/mL), E. coli (ATCC 25922); for Eryth/E.c fold change: ratio between intrinsic MIC of test compound and combination MIC, erythromycin 10.9 µM, E. coli
Protocol: Restoring enhancer concentrations were determined using previously reported protocols.

[9] = Escherichia coli, ATCC25922, E. coli (ATCC 25922)

SMILES	MIC ([1]; Staphylococcus aureus)	MIC (MRSA (ATCC 43300); Staphylococcus aureus)	MIC [2]	MIC (E. coli (ATCC 25922) [3]; [9])	MIC [4]	MIC [5]	MIC (C. albicans (ATCC 90028))	MIC [6]	IC50 (Cytotoxicity assay)	Hemolysis HC10 (human red blood cells)	Dox/P.a: concentration required to restore doxycycline activity (combination MIC) [7]	Dox/P.a fold change [7]	Eryth/E.c: concentration required to restore erythromycin activity (combination MIC) (E. coli (ATCC 25922) [8])	Eryth/E.c fold change (E. coli (ATCC 25922) [8])	MIC (MRSA (ATCC 43300))	MIC [1]	MIC (E. coli (ATCC 25922) [3]; E. coli (ATCC 25922))
O=C(NCCCNCCCCCCCCCCNCCCNC(=O)c1ccc2ccccc2c1)c1ccc2ccccc2c1.O=C(O)C(F)(F)F.O=C(O)C(F)(F)F [Compound 19e, N^1,N^10-Bis(3-(2-naphthamido)propyl)decane-1,10-diaminium 2,2,2-trifluoroacetate]	30 µM	1.22 µM	608 µM	122 µM	38.9 µM	38.9 µM	38.9 µM	4.86 µM	4.75 µM	>38.9 µM	608 µM	1 fold	60.8 µM	2 fold			
O=C(NCCCNCCCCCCCCCCCCNCCCNC(=O)c1cccc2ccccc12)c1cccc2ccccc12.O=C(O)C(F)(F)F.O=C(O)C(F)(F)F [Compound 17f, N^1,N^12-Bis(3-(1-naphthamido)propyl)dodecane-1,12-diaminium 2,2,2-trifluoroacetate]	25 µM	0.29 µM	300 µM	100 µM	> 37.6 µM	0.29 µM	> 37.6 µM	0.29 µM	> 37.6 µM	>37.6 µM	300 µM	1 fold	50 µM	2 fold			
O=C(NCCCNCCCCCCCCNCCCNC(=O)c1ccc2ccccc2c1)c1ccc2ccccc2c1.O=C(O)C(F)(F)F.O=C(O)C(F)(F)F [Compound 19d, N^1,N^8-Bis(3-(2-naphthamido)propyl)octane-1,8-diaminium 2,2,2-trifluoroacetate]	7.9 µM	40.3 µM	126 µM	126 µM	> 40.3 µM	> 40.3 µM	> 40.3 µM	40.3 µM	> 40.3 µM	>40.3 µM	15.7 µM	8 fold	15.7 µM	8 fold			
O=C(CCC(=O)Nc1ccc2ccccc2c1)NCCCNCCCCCCCNCCCNC(=O)CCC(=O)Nc1ccc2ccccc2c1.O=C(O)C(F)(F)F.O=C(O)C(F)(F)F [Compound 20c, N^1,N^7-Bis(3-(4-(naphthalen-2-ylamino)-4-oxobutanamido)propyl)heptane-1,7-diaminium 2,2,2-trifluoroacetate]	25 µM	2.2 µM	> 200 µM	25 µM	> 34.7 µM	> 34.7 µM	> 34.7 µM	≤ 0.27 µM	> 34.7 µM	>34.7 µM	6.25 µM		12.5 µM	2 fold			
O=C(NCCCNCCCCCCCNCCCNC(=O)c1ccc2ccccc2c1)c1ccc2ccccc2c1.O=C(O)C(F)(F)F.O=C(O)C(F)(F)F [Compound 19c, N^1,N^7-Bis(3-(2-naphthamido)propyl)heptane-1,7-diaminium 2,2,2-trifluoroacetate]	16 µM	≤ 0.32 µM	32 µM	16 µM	> 41 µM	> 41 µM	> 41 µM	≤ 0.32 µM	20.5 µM	>41.0 µM	4.0 µM and 4.00 µM	8 fold	4.0 µM	4 fold			
O=C(CCC(=O)Nc1cccc2ccccc12)NCCCNCCCCCCCNCCCNC(=O)CCC(=O)Nc1cccc2ccccc12.O=C(O)C(F)(F)F.O=C(O)C(F)(F)F [Compound 18c, N^1,N^7-Bis(3-(4-(naphthalen-1-ylamino)-4-oxobutanamido)propyl)heptane-1,7-diaminium 2,2,2-trifluoroacetate]	> 200 µM	> 34.7 µM	200 µM	200 µM	> 34.7 µM	> 34.7 µM	> 34.7 µM	> 34.7 µM	> 34.7 µM	>34.7 µM	12.5 µM	16 fold	200 µM	1 fold			
O=C(CCC(=O)Nc1ccc2ccccc2c1)NCCCNCCCCCCCCNCCCNC(=O)CCC(=O)Nc1ccc2ccccc2c1.O=C(O)C(F)(F)F.O=C(O)C(F)(F)F [Compound 20d, N^1,N^8-Bis(3-(4-(naphthalen-2-ylamino)-4-oxobutanamido)propyl)octane-1,8-diaminium 2,2,2-trifluoroacetate]	13.3 µM	> 34.2 µM	> 107 µM	107 µM	> 34.2 µM	> 34.2 µM	> 34.2 µM	17.1 µM	> 34.2 µM	>34.2 µM	53.4 µM	> 2 fold	26.7 µM	4 fold			
O=C(NCCCNCCCCCCCCCCNCCCNC(=O)c1cccc2ccccc12)c1cccc2ccccc12.O=C(O)C(F)(F)F.O=C(O)C(F)(F)F [Compound 17e, N^1,N^10-Bis(3-(1-naphthamido)propyl)decane-1,10-diaminium 2,2,2-trifluoroacetate]	244 µM	9.7 µM	608 µM	608 µM	> 38.9 µM	> 38.9 µM	> 38.9 µM	38.9 µM	23.7 µM	>38.9 µM	608 µM	1 fold	122 µM	5 fold	9.72 µM		
O=C(CCC(=O)Nc1cccc2ccccc12)NCCCNCCCCCCCCNCCCNC(=O)CCC(=O)Nc1cccc2ccccc12.O=C(O)C(F)(F)F.O=C(O)C(F)(F)F [Compound 18d, N^1,N^8-Bis(3-(4-(naphthalen-1-ylamino)-4-oxobutanamido)propyl)octane-1,8-diaminium 2,2,2-trifluoroacetate]	107 µM	> 34.2 µM	> 107 µM	> 107 µM	> 34.2 µM	> 34.2 µM	> 34.2 µM	> 34.2 µM	> 34.2 µM	>34.2 µM	> 107 µM	1 fold	107 µM	1 fold			
O=C(CCC(=O)Nc1cccc2ccccc12)NCCCNCCCCCCCCCCCCNCCCNC(=O)CCC(=O)Nc1cccc2ccccc12.O=C(O)C(F)(F)F.O=C(O)C(F)(F)F [Compound 18f, N^1,N^12-Bis(3-(4-(Naphthalen-1-ylamino)-4-oxobutanamido)propyl)dodecane-1,12-diaminium 2,2,2-trifluoroacetate]	3.12 µM	≤ 0.25 µM	> 100 µM	6.3 to 12.5 µM	> 32 µM	> 32 µM	> 32 µM	≤ 0.25 µM	> 32.2 µM	>32.2 µM	50.3 µM	> 2 fold	6.29 µM	2 fold		3.15 µM	12.5 µM
